In patent publication US4666897A, “Inhibition of mammalian collagenolytic enzymes by tetracyclines” (Research Foundation of State University, priority 1983, dated 1987):

Columns and labels:
[1] = target: T1, rat PMNL collagenolytic activity (PMNL collagenase) (Rattus norvegicus, UniProt O88766); experiment: Rat PMNL collagenolytic activity in vitro (14C-collagen gel lysis); format: biochemical; conditions: Table 2; PMNL extract (30 × 10^6 PMNLs per ml) + 20 ug/ml; control extract 39.0
T1 construct: An extract of PMNLs was prepared; from tissue; host or cells: extract of peritoneal exudate polymorphonuclear leucocytes of non-diabetic rats, elicited with glycogen
Procedure: To test the effect of physiologic levels of minocycline (the concentration in human serum, during a therapeutic regimen, is approximately 2 ug/ml; that in the gingival crevicular fluid is 4-5 times greater; Ciancio, et. al., 1980, J. Periodontol., 51, 531-534) on mammalian collagenolytic activity in vitro, peritonealexudate polymorphomuclear leucocytes (PMNLs) were collected from 15 mole (non-diabetic) rats 4 hours after I.P. injection of 0.15% glycogen. An extract of PMNLs was prepared, 250 μl aliquots of this extract were incubated with ^14 C-glycine labeled collagen fibrils for 14 hours at 35° C. (in the presence or absence of minocycline, or EDTA, or additional CaCl2), and collagenolytic activity was measured as described by Nicoll, et al., (Experientia., 37, 315-317).
The techniques used to measure the collagenolytic enzyme activity of gingival tissue in culture, and in polymorphonuclear leucocytes (PMNLs), are those described by Golub, et. al., (J. Dent. Res., 57, 520-525 (197)8) and Nicoll, et. al., (Experimentia, 37, 315-317, (1981)) with minor modifications.

[2] = system: fetal rat bones (radii and ulnae) in organ culture; experiment: PTH-induced bone resorption in organ culture (45calcium release); format: cell-based; conditions: for effect on PTH-enhanced bone resorption, in words: concentrations 0.2-300 μg/ml
Procedure: The technique used to assess bone resorption is based on monitoring the release of radioactive calcium, previously incorporated by embryonic bones in vivo, during organ culture. Pregnant Sprague-Dawley rats were injected subcutaneously with 200 μCi of ^45 calcium chloride on the 18th day of gestation. The following day, the animals were killed, the fetuses removed, and the radii and ulnae dissected under aseptic conditions. […] The bones were then randomly distributed and each bone, either a radius or ulna, was incubated in 0.5 ml of culture media alone or in a media containing parathyroid hormone (PTH: human synthetic 1-34 peptide, Beckman Instruments, Inc., Palo Alto, California) added in a final concentration of 1.0 μg/ml; the experimental bones were incubated in the PTH containing medium to which was added different concentrations (0.2-300 μg/ml) of the antibiotics to be tested. The bones were cultured for 5 days, with the media being changed after day 2, and the incubation terminated. The bones were decalcified in 0.2 ml of 5% trichloroacetic acid and the ^45 calcium content of the residual bones and of the culture media was measured as described previously. (Werner and Raisz, Endocrinology, 90, 752 (1972 ) and Gomes, et. al., Calc. Tiss. Res., 19, 285 (1976)). The ^45 calcium released into the media was calculated as a percentage of the total radioactive calcium measured in the bones.

[3] = system: GCF collagenase and gingival disease in diabetic twins; experiment: Human gingival crevicular fluid (GCF) study, diabetic twin brothers; format: in vivo; conditions: 7 days of treatment
Procedure: In a separate study involving humans, gingival crevicular fluid (GCF) samples were collected on filter paper strips inserted into 8 interproximal pockets of selected teeth in the maxillary arch of two twin brothers with juvenile-onset (insulin-dependent) diabetes mellitus. Fluid volume was immediately determined on a modified Periotron (Model 6000, Harco Electronics Ltd., Winnipeg, Canada); then incubated with 10 μl (^3 H-methyl) collagen (20,675 DPM) and 70 μl buffer (50 mM Tris-HCl, pH 7.8, containing 0.2 M sodium chloride and 5 mM calcium chloride). The GCF samples (or reagent blanks or trypsin controls) were incubated at 27° C. for 18 hours with gentle shaking. The reaction was stopped and undigested collagen precipitated by adding 10 μl 0.1 M phenanthroline in dioxane/water (1:1, v/v), 10 μl of nonradioactive methylated carrier collagen (2 mg/ml) in 50 mM Tris-HCl buffer containing 1M NaCl (pH 7.0), and 100 μl dioxane. After mixing, the radiolabeled collagen degradation products were collected by filtration and counted in a liquid scintillation spectrometer (Golub, et. al., 1976, J. Dent. Res., 55, 1049). Using this technique, the reaction blank (no enzyme or GCF added) released about 10% of the total substrate counts; 2-20 ng bacterial collagenase produced a linear increase in the release of radioactive counts from the ^3 H-collagen substrate (the 20 ng level of enzyme degraded 60% of the collagen substrate); and 50 ng trypsin released less than 1% of the counts above blank values. GCF collagenase activity was expressed as units of equivalent activity of vertebrate collagenase (obtained from New England Nuclear, Cat. No. NEK-016); 1 unit was operationally defined as the amount of enzyme that degrades 1 μg of collagen per hour at 27° C.
Four additional GCF samples were collected from other maxillary pockets of the same diabetic twin brothers on filter paper strips, their volume determined (see above), and collagenolytic activity assessed using the same procedure described above but with a different substrate (10 μl of (^3 H-propionate) collagen, NET-660, New England Nuclear Corp., Boston, Mass., 302,000 DPM).
Half of the 12 GCF samples per subject were activated by pretreatment with 1.04 uM trypsin followed by the addition of a 5-fold molar excess of soybean trypsin inhibitor. Samples were selected to be treated or not treated with trypsin by matching them for Gingival Index (Loe and Silness, Acta. Odont. Scand., 21, 533-551 (1967)), GCF flow, and for pocket depth; the clincal parameters (GI, PD) were measured immediately after GCF collection. All measurements were carried out immediately before antibiotic coverage and after 7 days of treatment with either pencillin G (lg. per day; patient three) or the tetracycline minocycline (200 mg/day; patient one).

[4] = system: periodontal disease in dogs; conditions: dogs on long-term therapy; cited from earlier work
[5] = system: periodontal disease in patients; conditions: patients who did not respond to routine periodontal therapy; cited from earlier work
rheumatoid arthritis = conditions: in vivo; cited from earlier work
[6] = system: ^14 C-glycine labeled collagen fibrils; experiment: Lysis of 14C-collagen gel by control enzymes (no PMNL extract); format: biochemical; conditions: Table 1, 1 μg enzyme
[7] = Table 4, first column, PTH + 0.2 μg/ml
[8] = Table 4, first column, PTH + 2.0 μg/ml
[9] = Table 4, first column, PTH + 20 μg/ml
[10] = Table 4, first column, PTH + 200 μg/ml
[11] = Table 4, second column, PTH + 0.2 μg/ml
[12] = Table 4, second column, PTH + 2.0 μg/ml
[13] = Table 4, second column, PTH + 20 μg/ml
[14] = Table 4, second column, PTH + 200 μg/ml
[15] = penicillin G 1 g per day (P. D.) or minocycline 200 mg/day (K. D.)

T1 sequence (O88766 102-466): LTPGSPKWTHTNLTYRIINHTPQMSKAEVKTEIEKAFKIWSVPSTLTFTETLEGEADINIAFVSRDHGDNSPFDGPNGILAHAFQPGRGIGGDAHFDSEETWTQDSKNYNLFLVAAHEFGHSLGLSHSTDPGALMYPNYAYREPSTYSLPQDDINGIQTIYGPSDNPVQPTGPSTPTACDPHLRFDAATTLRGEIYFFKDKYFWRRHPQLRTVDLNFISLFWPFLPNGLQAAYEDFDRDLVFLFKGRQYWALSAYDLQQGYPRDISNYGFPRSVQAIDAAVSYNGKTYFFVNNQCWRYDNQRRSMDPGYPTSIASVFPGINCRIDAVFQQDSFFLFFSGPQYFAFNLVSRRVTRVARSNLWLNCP

Row | Collagenolytic Activity: % ^14 C-collagen gel lysed [6] [%] | Molecule | Collagenolytic Activity: % ^14 C-collagen gel lyzed [1] [%] | ^45 Calcium in Fetal Bone Released into Media (%) after 2 days incubation [2, 7] [%] | ^45 Calcium in Fetal Bone Released into Media (%) after 2 days incubation [2, 8] [%] | ^45 Calcium in Fetal Bone Released into Media (%) after 2 days incubation [2, 9] [%] | ^45 Calcium in Fetal Bone Released into Media (%) after 2 days incubation [2, 10] [%] | ^45 Calcium in Fetal Bone Released into Media (%) after 2 days incubation [2, 11] [%] | ^45 Calcium in Fetal Bone Released into Media (%) after 2 days incubation [2, 12] [%] | ^45 Calcium in Fetal Bone Released into Media (%) after 2 days incubation [2, 13] [%] | ^45 Calcium in Fetal Bone Released into Media (%) after 2 days incubation [2, 14] [%] | effect on PTH-enhanced bone resorption, in words [2] | GCF flow [3, 15] | Gram-positive and Gram-negative organisms in the pockets [3, 15] | active GCF collagenase [3, 15] | pocket depth [3, 15] | total GCF collagenase (after trypsin pretreatment) [3, 15] | Gingival Index (G. I.) ([3]; penicillin G 1 g per day (patient three) or minocycline 200 mg/day (patient one)) | periodontal disease [4] | clinical benefit of long-term use [5] | treatment of rheumatoid arthritis (rheumatoid arthritis)
1 |  | C[C@H]1c2cccc(O)c2C(O)=C2C(=O)[C@]3(O)C(O)=C(C(N)=O)C(=O)[C@@H](N(C)C)[C@@H]3[C@@H](O)[C@@H]21 [doxycycline, Doxycycline] | 4.5 | 56.6 ± 2.0 | 57.5 ± 2.5 | 30.6 ± 1.7 | 18.8 ± 1.1 | 97.1 ± 0.7 | 93.5 ± 1.7 | 35.3 ± 1.6 | 28.7 ± 0.8 | inhibited bone resorption in a dose responsive manner |  |  |  |  |  |  |  |  | 
2 |  | CC1(C)S[C@@H]2[C@H](NC(=O)Cc3ccccc3)C(=O)N2[C@H]1C(=O)O [penicillin] |  |  |  |  |  |  |  |  |  | no detectable effect | little or no effect | reduced the Gram-positive but increased the Gram-negative organisms | little or no effect | little or no effect | appeared to increase | little or no effect |  |  | 
3 |  | CN(C)[C@@H]1C(=O)C(C(N)=O)=C(O)[C@@]2(O)C(=O)C3=C(O)c4c(O)cccc4[C@@](C)(O)[C@H]3C[C@@H]12 [tetracycline, Tetracycline] | 2.0 | 58.4 ± 1.3 | 59.9 ± 1.5 | 45.0 ± 0.7 | 14.4 ± 0.4 | 93.0 ± 1.7 | 97.2 ± 0.8 | 69.4 ± 3.5 | 19.8 ± 0.5 | inhibited bone resorption in a dose responsive manner |  |  |  |  |  |  | significant improvement | clinically beneficial | effective
4 | 2.6 | Trypsin: protease control for non-specific proteolysis of the collagen substrate (protein, UniProt P00760 24-246, looked up) Serine protease 1: IVGGYTCGANTVPYQVSLNSGYHFCGGSLINSQWVVSAAHCYKSGIQVRLGEDNINVVEGNEQFISASKSIVHPSYNSNTLNNDIMLIKLKSAASLNSRVASISLPTSCASAGTQCLISGWGNTKSSGTSYPDVLKCLKAPILSDSSCKSAYPGQITSNMFCAGYLEGGKDSCQGDSGGPVVCSGKLQGIVSWGSGCAQKNKPGVYTKVCNYVSWIKQTIASN |  |  |  |  |  |  |  |  |  |  |  |  |  |  |  |  |  |  | 
